Data: patent US20110172301A1, “Use of anti-oxidant compounds for muscle recovery” (DSM IP ASSETS B.V., priority 2004, published 2011)

Columns and labels:
[1] = ONOOH scavenging (protection against ONOOH induced DHR-123 oxidation); assay type: biochemical; conditions: 50% inhibition of oxidation of DHR-123; 5 μM DHR-123, 0.7 μM ONOOH, pH 7.4, 37° C., n = 3; read-out: ONOO− scavenging activity, IC50 ± SEM
Description: The protection against ONOOH induced DHR-123 oxidation of the compounds was measured as described by Kooy et al (Peroxynitrite-mediated oxidation of dihydrorhodamine 123. Free Radic Biol Med, 16; 149-56). In short, 5 μM DHR-123 and various concentrations of a scavenger were incubated in 100 mM sodium phosphate buffer (pH 7.4) at 37° C. Subsequently, ONOOH was added by pipetting a 10 μl aliquot into the tube while rapid vortexing, reaching a final concentration of 0.7 μM. Fluorescence measurements were performed with excitation and emission wavelengths of respectively 500 and 536 nm. The effects are expressed as the concentration of the scavenger giving 50% inhibition of the oxidation of DHR-123 (IC50).

[2] = O2•- scavenging (xanthine/xanthine oxidase, NBT reduction); assay type: biochemical; conditions: 50% decrease in the reduction of NBT; xanthine 150 μM, XO 5.5 mU/ml, pH 7.8, 37° C., n = 3; read-out: O2•− scavenging activity, IC50 ± SEM
Description: O2•- were generated by the reaction of xanthine (150 μM) and xanthine oxidase (XO) (5.5 mU/ml) in 50 mM potassium phosphate buffer (pH 7.8). O2•-radicals were detected by nitroblue tetrazolium (NBT, 50 μM). NBT undergoes reduction by O2•- to its formazan. The rate of this reduction was monitored spectrophotometrically at 560 nm during 2 minutes. Various concentrations of a scavenger were added and incubated at 37° C. The reaction was started by the addition of XO. The O2•-scavenging potential is expressed as the concentration of the scavenger giving a 50% decrease in the reduction of NBT (IC50).
To adjust for a possible inhibitory effect of the scavenger on the activity of XO, the highest concentration of the scavenger was incubated at 37° C. and subsequently the rate of the urate formation was measured at 293 nm during 2 minutes.

diaphragm muscle strips = experiment: Organ bath experiments: force of diaphragm strips after H2O2 incubation; parameters: species or system Male Lewis rats; conditions: all applied stimulation frequencies, compared with control; FIG. 1
From the text: Male Lewis rats (age between 12 and 14 weeks old) were used. After decapitation, the diaphragm was rapidly excised, and small strips (around 2 mm width and 1 cm long) were cut and subsequently mounted in thermostated organ baths, containing Krebs buffer gassed with a mixture of 95% O2 and 5% CO2, pH 7.4. Each diaphragm strip was connected vertically to an isometric transducer. The composition of the Krebs buffer was (mM): NaCl (117.5), KCl (5.6), MgSO4 (1.18), CaCl2 (2.5), NaHPO4 (1.28), NaHCO3 (25) and glucose (5.5). During the experiment, the buffer was changed every 15 minutes. Field stimulation was created along the entire length of each muscle strip with platinum electrodes. At the beginning of the experiment, the strips were washed during 45 minutes at room temperature to minimize temperature dependent deterioration. Thereafter, the water bath was turned on at 37° C. (15 minutes before the start of the experiments). […] First the Pt (twitch tension at a stimulation of 1 Hz) and Po (maximal specific tension at a stimulation of 100 Hz, 250 ms duration) were determined. Thereafter, the response of the diaphragm muscle strips to increasing stimulus frequencies was assessed at Lo by the application of 10, 20, 33, 50 and 100 Hz-pulses applied in 250 ms trains. […] After that were again determined: Pt, Po, force-frequency and fatigue.

| IC50 [1] [µM] | IC50 [2] [µM] | Compound | effect on muscle force (diaphragm muscle strips) |
| --- | --- | --- | --- |
| > 200 | > 100 | O=C(O)CCCC[C@@H]1CCSS1 (racemic) [Lipoic acid, reference compound] | – |
| – | – | OO [H2O2, hydrogen peroxide] | dose-dependently reduces the force |
| 6.6 ± 0.2 | > 200 | COc1cc(CCO)ccc1O [Homovanillic alcohol] | – |
| 99 ± 16 | > 200 | OCCc1ccc(O)cc1 [Tyrosol] | – |
